Values of other authors in US10278642B2, “Methods of assessing metabolic function” (Aurum Biosciences Limited, priority 2012, dated 2019).

Settings: by 100 ml of the liquid at standard pressure and temperature

oxygen dissolved: 49 mL
SMILES: FC1(F)C(F)(F)C(F)(F)C2(F)C(F)(F)C(F)(F)C(F)(F)C(F)(F)C2(F)C1(F)F (stereo not shown) [perfluorodecalin]
